From publication PMC8370248, “Key Metabolic Enzymes Involved in Remdesivir Activation in Human Lung Cells” (Antimicrobial Agents and Chemotherapy, 2021)
Like-named read-outs stand apart in the source and are kept apart here.

What was measured:
Assay type in all cases: in vitro ADME
CES1b = biological target: T1, CES1b (Homo sapiens, UniProt P23141); assay: CES1b-catalyzed hydrolysis of RDV and control (substrate disappearance, LC-MS)
T1 construct: purchased Corning Incorporated (Corning, NY); host or cells: baculovirus-infected insect cells (microsomal fraction, Supersomes)
T1 sequence (P23141 18-567): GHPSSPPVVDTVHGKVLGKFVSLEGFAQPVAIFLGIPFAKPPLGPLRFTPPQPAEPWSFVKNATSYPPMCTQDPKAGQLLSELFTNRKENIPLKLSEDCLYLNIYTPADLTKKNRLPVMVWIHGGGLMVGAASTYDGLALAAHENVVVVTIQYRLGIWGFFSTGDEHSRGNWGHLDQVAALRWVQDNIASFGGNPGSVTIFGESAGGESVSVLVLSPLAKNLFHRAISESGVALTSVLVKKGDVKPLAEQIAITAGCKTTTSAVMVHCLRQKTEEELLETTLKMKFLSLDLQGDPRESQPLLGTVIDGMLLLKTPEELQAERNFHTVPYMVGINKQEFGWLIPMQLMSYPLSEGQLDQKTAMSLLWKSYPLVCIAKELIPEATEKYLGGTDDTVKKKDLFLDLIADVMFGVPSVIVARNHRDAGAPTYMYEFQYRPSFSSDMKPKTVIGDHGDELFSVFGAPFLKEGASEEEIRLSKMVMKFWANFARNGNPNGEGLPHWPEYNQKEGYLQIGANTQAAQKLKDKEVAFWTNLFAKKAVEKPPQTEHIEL
Experimental: (§1) The catalytic activity of carboxylesterase 1b (CES1b), carboxylesterase 1c (CES1c), CES2, and CatA toward RDV hydrolysis was measured using protein-enriched subcellular fraction (CES isozymes) or recombinant proteins (CatA). The reaction rates were determined by monitoring the disappearance of RDV using a liquid chromatography-mass spectrometry (LC-MS) method.
(§2) RDV or positive-control substrates (oseltamivir for CES1 or procaine for CES2) were incubated with individual Supersome preparations (final CES concentration, 1.5 mg/ml) in 0.1 M potassium phosphate buffer (pH 7.4) at 37°C. Substrates were added to a final concentration of 1 μM to initiate the reaction. The final incubation volume was 250 μl. Aliquots were removed after incubation for 0, 10, 30, 60, and 120 min. The reactions were stopped by the addition of the quench solution containing the LC-MS internal standard (IS) (labetalol). Following protein precipitation and centrifugation, 150 μl of supernatant was dried down and reconstituted with 250 μl water. All samples were analyzed by an LC-MS, and the analyte/internal standard peak area ratio (PAR) values were used for quantification. Disappearance of RDV or positive-control compounds was monitored over the incubation time period. Three experiments were conducted with two replicates in each experiment, and data are reported as averages from the three experiments.
(§3) In all studies apart from those with CES1 and CatA with enzyme inhibitors, samples (10-μl aliquots) were injected with a Thermo Scientific autosampler. The LC instrumentation consisted of a Thermo Scientific Dionex UltiMate 3000 RS pump, and the LC column was a Waters Acquity UPLC BEH C18 (1.7 μm particle size, 2.1 by 50 mm). Mobile phases A and B were water 99.9% (vol/vol) containing 0.1% (vol/vol) formic acid, and acetonitrile 99.9% (vol/vol) containing 0.1% (vol/vol) formic acid, respectively, pumped at 0.2 ml/minute. Elution was achieved by a series of linear gradients over 2.33 min followed by reequilibration for 2.57 min. The MS instrument was a Thermo Q Exactive Hybrid Quadrupole-Orbitrap operating in positive or negative ionization mode as appropriate. This was calibrated on a weekly basis, and data were processed with GMSU 8.4.66 software by Gubbs Inc. (Alpharetta, GA). Mass tolerance of 5 ppm was used.

CES1c = biological target: T2, CES1c (Homo sapiens, UniProt P23141); assay: CES1c-catalyzed hydrolysis of RDV and control (substrate disappearance, LC-MS)
T2 construct: purchased Corning Incorporated (Corning, NY); host or cells: baculovirus-infected insect cells (microsomal fraction, Supersomes)
T2 sequence (P23141 18-566 isoform P23141-3 limits assumed): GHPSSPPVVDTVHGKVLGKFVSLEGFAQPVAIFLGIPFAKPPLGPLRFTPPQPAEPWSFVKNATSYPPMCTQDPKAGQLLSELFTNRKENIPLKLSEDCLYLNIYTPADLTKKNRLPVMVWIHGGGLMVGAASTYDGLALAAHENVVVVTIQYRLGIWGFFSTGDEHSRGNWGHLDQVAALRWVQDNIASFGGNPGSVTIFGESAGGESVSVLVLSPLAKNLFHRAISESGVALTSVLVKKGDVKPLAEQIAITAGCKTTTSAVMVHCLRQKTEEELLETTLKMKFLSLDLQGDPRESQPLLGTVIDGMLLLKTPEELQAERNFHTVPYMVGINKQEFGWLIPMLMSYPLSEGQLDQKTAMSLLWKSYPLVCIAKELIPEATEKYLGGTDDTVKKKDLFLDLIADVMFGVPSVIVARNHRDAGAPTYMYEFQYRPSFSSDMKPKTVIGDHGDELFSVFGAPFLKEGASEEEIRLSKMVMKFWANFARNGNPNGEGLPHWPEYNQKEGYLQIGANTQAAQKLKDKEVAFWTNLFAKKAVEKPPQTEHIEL
Experimental: as §1, §2, §3

CES2 = biological target: T3, CES2 (Homo sapiens, UniProt O00748); assay: CES2-catalyzed hydrolysis of RDV and control (substrate disappearance, LC-MS); conditions: for half-life at 1 μM: human, CES2 Supersomes (protein-enriched subcellular fraction)
T3 construct: purchased Corning Incorporated (Corning, NY); host or cells: baculovirus-infected insect cells (microsomal fraction, Supersomes)
T3 sequence (O00748 27-559): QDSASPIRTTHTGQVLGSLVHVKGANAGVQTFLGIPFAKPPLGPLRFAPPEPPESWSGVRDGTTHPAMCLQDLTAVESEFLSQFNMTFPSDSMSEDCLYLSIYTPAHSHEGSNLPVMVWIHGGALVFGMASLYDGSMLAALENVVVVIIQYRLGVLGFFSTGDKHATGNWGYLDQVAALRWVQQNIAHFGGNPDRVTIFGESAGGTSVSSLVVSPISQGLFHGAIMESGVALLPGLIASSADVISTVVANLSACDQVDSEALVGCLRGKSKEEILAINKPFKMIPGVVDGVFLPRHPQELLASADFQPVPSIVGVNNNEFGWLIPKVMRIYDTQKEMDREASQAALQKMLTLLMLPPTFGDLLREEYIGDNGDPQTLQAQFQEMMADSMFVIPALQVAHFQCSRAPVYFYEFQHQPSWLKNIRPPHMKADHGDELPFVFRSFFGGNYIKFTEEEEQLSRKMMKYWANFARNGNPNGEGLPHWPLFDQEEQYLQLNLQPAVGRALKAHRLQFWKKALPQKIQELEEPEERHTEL
Experimental: as §1, §2, §3

[1] = times faster than positive control oseltamivir

## CCC(CC)COC(=O)[C@H](C)N[P@](=O)(OC[C@H]1O[C@@](C#N)(c2ccc3c(N)ncnn23)[C@H](O)[C@@H]1O)Oc1ccccc1 [RDV, Remdesivir]
CES1b; human, CES1b Supersomes (protein-enriched subcellular fraction), 1 μM substrate, CES 1.5 mg/ml, pH 7.4, 37°C, read-out: t1/2, CES1b (converted)
  half-life at 1 μM: 9.7 min
CES1b; [1]
  CES1b hydrolysis rate relative to oseltamivir: 2 times
CES1c; human, CES1c Supersomes (protein-enriched subcellular fraction), 1 μM substrate, CES 1.5 mg/ml, pH 7.4, 37°C, read-out: t1/2, CES1c (converted)
  half-life at 1 μM: 7.7 min
CES1c; [1]
  CES1c hydrolysis rate relative to oseltamivir: 4 times
CES2; 1 μM substrate, CES 1.5 mg/ml, pH 7.4, 37°C
  Activity for amidate ester cleavage, CES2: 2.8 ± 2.6 × 10^−4 nmol/min/mg
CES2; pH 7.4, 1 μM substrate, CES 1.5 mg/ml, pH 7.4, 37°C, read-out: t1/2, CES2 (converted)
  half-life at 1 μM: > 1000 min
CES2; pH 7.4, as stated in text, read-out: half-life, CES2
  half-life at 1 μM: > 960 min
